# Literature values in patent US6365621B1, “Remedies or preventives for intractable epilepsy” (Pharmaceutical Co., Ltd., priority 1998, dated 2002).
# System: kainate-induced amygdala seizures
# Settings: high concentration; cited from earlier work
structure (smiles),measurement,value
NS(=O)(=O)Cc1noc2ccccc12 [zonisamide],Suppression of status epilepticus of kainate-induced amygdala seizure in acute phase,proven suppression effect
